Measured values as given in paper PMC6273487, “Characterisation of the Broadly-Specific O-Methyl-transferase JerF from the Late Stages of Jerangolid Biosynthesis” (Molecules, 2016).

Target: T1, JerF (Sorangium cellulosum, UniProt A1YBT9)
T1 construct: codon-optimised full-length gene in pCOLD-I, N-terminal His6 tag, expressed in E. coli BL21 (DE3), cell-free extract (not purified)
Assay: HPLC-MS of O-methylated product after bioconversion with cell-free extract
Format: biochemical
Details: 5 mM MgCl2, 0.25 mM substrate

T1 sequence (A1YBT9 entry or part of it): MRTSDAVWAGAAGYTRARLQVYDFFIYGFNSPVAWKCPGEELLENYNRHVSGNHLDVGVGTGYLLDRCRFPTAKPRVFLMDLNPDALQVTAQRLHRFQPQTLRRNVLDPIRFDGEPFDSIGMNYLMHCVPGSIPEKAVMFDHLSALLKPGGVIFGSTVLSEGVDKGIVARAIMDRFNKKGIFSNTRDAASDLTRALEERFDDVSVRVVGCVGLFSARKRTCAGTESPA

Structure (SMILES) | HPLC-MS of O-methylated product after bioconversion with cell-free extract (SAM tosylate 0.97 mM, 40 mM Tris HCl, pH 8.8, 28 °C, 16 h, empty-vector and heat-denatured lysate controls run) | HPLC-MS of O-methylated product after bioconversion with cell-free extract (SAM tosylate 4.18 mM, 25 mM HEPES, pH 7.5, 28 °C, 20 h)
C/C=C/C1CC(=O)C(C)C(=O)O1 (racemic) [rac-14d, (E)-3-Methyl-6-(prop-1-en-1-yl)dihydro-2H-pyran-2,4(3H)-dione] | rac-14d was almost completely converted into the respective O-methylated product mixture rac-15d | –
CC(C)/C=C/C1CC(=O)C(C)C(=O)O1 (racemic) [rac-14e, (E)-3-Methyl-6-(3-methylbut-1-en-1-yl)dihydro-2H-pyran-2,4(3H)-dione] | – | Full conversion was reproducibly obtained for compounds rac-14b, rac-14c, rac-14e and rac-14f
